Consider 20 compounds from patent publication US6713261B1, “Method for assessing genotoxicity of a compound” (Institut National de la Sante et de la Recherche Medicale, priority 1999, dated 2004).

Read-outs that look alike come from different tables or passages of the source. Starred links: 1 amine or outer side, 2 acyl side, 3 side chain; linkers in the order of their positions; H or OH if unused. Positions of bridges follow the written chain, without caps; N, C: chain ends. Non-standard residues stand in square brackets, D forms with d. Residues, ends and D or L forms follow the SMILES beside them. Chains are numbered I, II in the order given. Actinocin(9to1) = Cc1c2oc3c(C)ccc(C(=O)[*:1])c3nc-2c(C(=O)[*:2])c(N)c1=O; NMeV = CN[C@H](C(=O)O)C(C)C; Sar = CNCC(=O)O

Series [1] deals with CTLL-2-bcl2 cells. The class given is cell-based, mouse. As to conditions: after metabolic activation.
Series [2] has as its system CTLL-2 cells. As to conditions: after metabolic activation.
The subject of series [3] is CTLL-2-bcl2 cells. As to conditions: after metabolic activation.
Series [4] deals with CTLL-2 cells. It is filed as cell-based, mouse. To be noted: after metabolic activation.
The test system of series [5] is CTLL-2 cells. Kind of series: Measurement of apoptosis (Annexin V-FITC, YOPRO-1) in CTLL-2 cells. The class given is cell-based, mouse.
The test system of series [6] is CTLL-2-bcl2 cells. Nature of the series: Measurement of apoptosis (Annexin V-FITC, YOPRO-1) in CTLL-2-bcl2 cells. As to conditions: for induction of apoptosis (result in words): in parallel to micronucleus test. It is filed as cell-based, mouse.
The subject of series [7] is CTLL-2 cells. Nature of the series: Micronucleus test without metabolic activation in CTLL-2 cells. To be noted: for formation of micronuclei / micronucleated cell frequency (result in words): harvested at 15th hour, without metabolic activation.
The subject of series [8] is CTLL-2 cells. Kind of series: Metaphase analysis test in CTLL-2 cells. It is filed as cell-based, mouse. As to conditions: for aberrant cells: CTLL-2.
The test system of series [9] is CTLL-2-bcl2 cells. Nature of the series: Micronucleus test without metabolic activation in CTLL-2-bcl2 cells. To be noted: harvested at 15th hour.
Series [10] concerns CTLL-2 cells. As to conditions: mouse, 15 h.
Series [11] relates to human lymphocytes. To be noted: 44 hours.
The test system of series [12] is human lymphocytes. As to conditions: human lymphocytes treated 44 hours; from 250 μM of dexamethasone; control 2%.
Series [13] concerns CTLL-2-bcl2 cells. To be noted: mouse, 15 h.
The mark [14] stands for this setting: CTLL-2 cells, in parallel to micronucleus test.

As to `Cc1c2ccccc2c(C)c2c1ccc1ccccc12` [7,12-dimethylbenz[a]anthracene], the “apoptosis (result in words)” value in series [1] and in [4] was “apoptosis only on the CTLL-2 cells” each time. For the same compound, the “formation of micronuclei (result in words)” value in [2] and in [3] was “induce the formation of micronuclei” in each case.
With `C[C@H]1CCC/C=C/[C@@H]2C[C@H](O)C[C@H]2[C@H](O)/C=C/C(=O)O1` [brefeldin A], the “induction of apoptosis (result in words)” value in series [5] (setting [14]) was “induce apoptosis”.
For the compound `COS(C)(=O)=O` [MMS, Methyl methanesulfonate], the “induction of apoptosis (result in words)” value in series [5] (setting [14]) and in series [6] was “apoptotic phenomenon is not triggered” throughout.
Regarding `CN1C(=O)[C@]23CC4=CC=C[C@H](O)[C@H]4N2C(=O)[C@@]1(CO)SS3` [gliotoxin], the level of apoptosis in series [5] is given as 45%. Further, the apoptosis in series [5] (CTLL-2, in parallel to metaphase analysis, […], controls 5%) stood at 17%. For the same compound, in series [5] (CTLL-2 cells), the “lowest concentration with apoptosis different from control (p=0.01)” value worked out at 100 nM. Also, the “induction of apoptosis (result in words)” value in [6] is “apoptosis was maintained at a lower rate”. In addition, in series [7] (CTLL-2 cells), the “lowest concentration with increase in micronuclei versus control” value was found to be 100 nM. The “number of aberrant (micronucleated) cells” value in series [7] (nontransfected CTLL-2, gliotoxin at the highest dose (200 nM), increased from 5‰) is 20 ‰. Besides, in series [8] (from 50 μM of gliotoxin, control 1%), the aberrant cells was determined as 10%. For the same compound, in series [8] (CTLL-2 cells), the “chromosomal aberrations (result in words)” value is “positive response” and the “lowest concentration with aberrations / positive response in terms of clastogenesis” value was found to be 50 µM. The “formation of micronuclei / micronucleated cell frequency (result in words)” value in series [9] was “as was the number of micronucleated cells”.
For the compound `CCN(CC)CCCC(C)Nc1c2ccc(Cl)cc2nc2ccc(OC)cc12` (stereo not drawn) [quinacrin], in series [5] (setting [14]), the “induction of apoptosis (result in words)” value was “induce apoptosis”.
Regarding `CSCCC=O` [methional], in series [5] (CTLL-2, methional at the highest dose (150 μM), control 6.5%), the “level of apoptotic cells” value is 24%. Further, the “lowest concentration with statistically significant (p=0.01) induction of apoptosis” value in [5] (CTLL-2 cells, first dose) is 60.8 µM. Besides, the “induction of apoptosis (result in words)” value in series [6] was “neither apoptosis nor micronuclei appeared”. Also, in series [8] (CTLL-2 cells), the “chromosomal aberrations (result in words)” value is “structural aberrations, such as breaks or gaps” and the “lowest concentration with aberrations / positive response in terms of clastogenesis” value is 18.75 µM. For the same compound, the “cells bearing chromosomal aberrations” value in series [8] (nontransfected CTLL-2, methional 18.75 μM, control 3%) is 13%. For the same compound, the “lowest concentration with statistically significant (p=0.01) micronucleated cells” value in series [10] was determined as 60.8 µM. Besides, the “number of micronucleated cells” value in series [10] (150 μM) is 98 ‰.
For the compound `CN1C(=O)CN=C(c2ccccc2)c2cc(Cl)ccc21` [diazepam], the “induction of apoptosis (result in words)” value in series [5] and in series [6] was “without inducing apoptosis” in each case. Moreover, the “formation of micronuclei / micronucleated cell frequency (result in words)” value in series [7] (CTLL-2 cells) and in [9] was “positive response” throughout.
As to `O=P1(N(CCCl)CCCl)NCCCO1` (stereo not drawn) [cyclophosphamide], the “apoptosis (result in words)” value in series [1] and in series [4] was “apoptosis only on the CTLL-2 cells” each time. Moreover, the “formation of micronuclei (result in words)” value in series [2] and in series [3] was “induce the formation of micronuclei” each time.
On to `O=c1c(-c2ccc(O)cc2)coc2cc(O)cc(O)c12` [genistein], for which the “induction of apoptosis (result in words)” value in series [5] (setting [14]) is reported as “induce apoptosis”.
On to `CCOS(C)(=O)=O` [ethyl methanesulfonate], for which the “induction of apoptosis (result in words)” value in [5] (setting [14]) and in series [6] was “without inducing apoptosis” each time.
Regarding `COc1cc(/C=C/C(=O)CC(=O)/C=C/c2ccc(O)c(OC)c2)ccc1O` [curcumin], the “induction of apoptosis (result in words)” value in series [5] (setting [14]) was “induce apoptosis”.
Turning to `CN(N=O)C(N)=O` [MNU, N-methyl-N-nitrosourea], the “induction of apoptosis (result in words)” value in series [5] (setting [14]) and in series [6] was “without inducing apoptosis” throughout. Further, the “formation of micronuclei / micronucleated cell frequency (result in words)” value in [7] (CTLL-2 cells) and in series [9] was “positive response” each time.
Turning to `CC[C@@]1(O)C(=O)OCc2c1cc1n(c2=O)Cc2cc3ccccc3nc2-1` [camptothecin], the “induction of apoptosis (result in words)” value in [5] (setting [14]) was “induce apoptosis”.
Take `C[C@@H]1C[C@H]2[C@@H]3CCC4=CC(=O)C=C[C@]4(C)[C@@]3(F)[C@@H](O)C[C@]2(C)[C@@]1(O)C(=O)CO` [dexamethasone]: the “concentration from which apoptosis increased” value in series [11] was 250 µM; in [5] (CTLL-2, in parallel to metaphase analysis), 37.5 nM. The apoptosis in series [11] (from 250 μM of dexamethasone, control approximately 16%) was 40%; in [5] (CTLL-2, in parallel to metaphase analysis, 150 nM dexamethasone), 30%; in [5] (CTLL-2, in parallel to metaphase analysis, from 37.5 nM of dexamethasone, control approximately 7%), 18%. In addition, the “percentage of apoptotic cells” value in [5] (CTLL-2, Annexin-V-FITC and YOPRO-1, maximum from 50 nM of dexamethasone, negative control 6%) is given as 30.5%. Also, the aberrant cells in series [12] turned out to be 11%; in series [8] (from 37.5 nM of dexamethasone, control 2%) it was 8%. Further, the “chromosomal aberrations (result in words)” value in [8] (CTLL-2 cells) is “chromosome and chromatid breaking but no exchange”. Further, in series [8] (CTLL-2 cells), the “lowest concentration with number of aberrant cells statistically different (p=0.05) from control” value is 37.5 nM. Further, in series [10] (50 nM), the micronucleated cells is recorded as 60 ‰.
Turning to `Cc1c2oc3c(C)ccc(C(=O)N[C@@H]4C(=O)N[C@H](C(C)C)C(=O)N5CCC[C@H]5C(=O)N(C)CC(=O)N(C)[C@@H](C(C)C)C(=O)O[C@@H]4C)c3nc-2c(C(=O)N[C@@H]2C(=O)N[C@H](C(C)C)C(=O)N3CCC[C@H]3C(=O)N(C)CC(=O)N(C)[C@@H](C(C)C)C(=O)O[C@@H]2C)c(N)c1=O` [Actinomycin D] (I: T[dV]P[Sar][NMeV] / II: T[dV]P[Sar][NMeV]; ester I:1-I:C, II:1-II:C; linker I:N-II:N via Actinocin(9to1)), the “induction of apoptosis (result in words)” value is recorded as “induction of apoptosis” in [5] (setting [14]) and “neither apoptosis nor genotoxicity is observed” in series [6]. The “formation of micronuclei / micronucleated cell frequency (result in words)” value in series [7] (CTLL-2 cells) is recorded as “positive response in terms of clastogenesis”; in series [9] it was “neither apoptosis nor genotoxicity is observed”.
For the compound thapsigargine, the “induction of apoptosis (result in words)” value in series [5] (setting [14]) is reported as “induce apoptosis”.
As to mitomycin C, the “formation of micronuclei / micronucleated cell frequency (result in words)” value in series [7] (CTLL-2 cells) and in [9] was “micronucleated cell frequencies increase significantly with the dose” each time.
With `COC(=O)Nc1nc2ccc(C(=O)c3cccs3)cc2[nH]1` [Nocodazole, nocodazole], the “induction of apoptosis (result in words)” value in series [5] (setting [14]) is “induce apoptosis”.
For the compound `CC(=O)O[C@H]1C(=O)[C@@]2(C)[C@H]([C@H](OC(=O)c3ccccc3)[C@]3(O)C[C@H](OC(=O)[C@H](O)[C@@H](NC(=O)c4ccccc4)c4ccccc4)C(C)=C1C3(C)C)[C@]1(OC(C)=O)CO[C@@H]1C[C@@H]2O` [taxol], in [13], the “concentration at which the difference in number of micronuclei between CTLL-2 and CTLL-2-bcl2 lines appears” value came to 25 nM. Moreover, in [13], the “lowest concentration with increase in number of micronuclei” value was 50 nM. The “induction of apoptosis (result in words)” value in [5] (setting [14]) was “induce apoptosis”. Also, the “apoptosis at the dose that increases micronuclei” value was “do not cause apoptosis” in series [5] (CTLL-2 cells, taxol 25 nM) and “do not cause apoptosis” in series [6] (taxol 50 nM). In series [10], the “lowest concentration with increase in micronuclei versus control” value is 25 nM.
Regarding `CN[C@@H]1C[C@H]2O[C@@](C)([C@@H]1OC)n1c3ccccc3c3c4c(c5c6ccccc6n2c5c31)C(=O)NC4` [staurosporine], the “induction of apoptosis (result in words)” value in series [5] (setting [14]) is given as “induction of apoptosis”; in [6], “neither apoptosis nor genotoxicity is observed”. The “formation of micronuclei / micronucleated cell frequency (result in words)” value in series [7] (CTLL-2 cells) is on record as “positive response in terms of clastogenesis”; in series [9] it was “neither apoptosis nor genotoxicity is observed”.
